Laboratory results taken from BigSolDB 2.1.

Cn1[nH]c(=O)c(=O)[nH]c1=S
solubility (mole fraction) (in acetone, 293.25 K): 0.015
solubility (mole fraction) (in acetone, 298.25 K): 0.0155
solubility (mole fraction) (in acetone, 303.09 K): 0.016
solubility (mole fraction) (in acetone, 308.05 K): 0.0168
solubility (mole fraction) (in acetone, 312.79 K): 0.0178
solubility (mole fraction) (in acetone, 318.03 K): 0.0186
solubility (mole fraction) (in acetone, 323.07 K): 0.0199
solubility (mole fraction) (in acetone, 327.37 K): 0.0209
solubility (mole fraction) (in acetonitrile, 293.21 K): 0.00221
solubility (mole fraction) (in acetonitrile, 298.23 K): 0.00248
solubility (mole fraction) (in acetonitrile, 303.15 K): 0.00268
solubility (mole fraction) (in acetonitrile, 308.11 K): 0.00299
solubility (mole fraction) (in acetonitrile, 313.07 K): 0.00333
solubility (mole fraction) (in acetonitrile, 317.95 K): 0.00375
solubility (mole fraction) (in acetonitrile, 323.11 K): 0.0042
solubility (mole fraction) (in acetonitrile, 328.13 K): 0.00463
solubility (mole fraction) (in acetonitrile, 333.23 K): 0.00521
solubility (mole fraction) (in acetonitrile, 338.17 K): 0.00585
solubility (mole fraction) (in acetonitrile, 342.75 K): 0.00654
solubility (mole fraction) (in ethanol, 293.23 K): 0.0125
solubility (mole fraction) (in ethanol, 298.35 K): 0.014
solubility (mole fraction) (in ethanol, 303.33 K): 0.0152
solubility (mole fraction) (in ethanol, 308.29 K): 0.0169
solubility (mole fraction) (in ethanol, 313.47 K): 0.0186
solubility (mole fraction) (in ethanol, 318.47 K): 0.0205
solubility (mole fraction) (in ethanol, 323.41 K): 0.0228
solubility (mole fraction) (in ethanol, 328.23 K): 0.0255
solubility (mole fraction) (in ethanol, 333.53 K): 0.0278
solubility (mole fraction) (in ethanol, 338.63 K): 0.0307
solubility (mole fraction) (in ethanol, 343.33 K): 0.0345
solubility (mole fraction) (in ethyl acetate, 293.07 K): 0.00574
solubility (mole fraction) (in ethyl acetate, 298.49 K): 0.00617
solubility (mole fraction) (in ethyl acetate, 303.41 K): 0.00643
solubility (mole fraction) (in ethyl acetate, 308.49 K): 0.00697
solubility (mole fraction) (in ethyl acetate, 313.53 K): 0.00747
solubility (mole fraction) (in ethyl acetate, 318.67 K): 0.00799
solubility (mole fraction) (in ethyl acetate, 323.49 K): 0.0086
solubility (mole fraction) (in ethyl acetate, 328.61 K): 0.00918
solubility (mole fraction) (in ethyl acetate, 333.53 K): 0.00985
solubility (mole fraction) (in ethyl acetate, 338.23 K): 0.0104
solubility (mole fraction) (in ethyl acetate, 343.33 K): 0.0111
solubility (mole fraction) (in isopropanol, 293.11 K): 0.00556
solubility (mole fraction) (in isopropanol, 298.21 K): 0.00663
solubility (mole fraction) (in isopropanol, 303.13 K): 0.00782
solubility (mole fraction) (in isopropanol, 308.11 K): 0.00915
solubility (mole fraction) (in isopropanol, 312.87 K): 0.0107
solubility (mole fraction) (in isopropanol, 317.83 K): 0.0124
solubility (mole fraction) (in isopropanol, 323.07 K): 0.0142
solubility (mole fraction) (in isopropanol, 328.13 K): 0.0164
solubility (mole fraction) (in isopropanol, 333.09 K): 0.0187
solubility (mole fraction) (in isopropanol, 337.75 K): 0.0217
solubility (mole fraction) (in isopropanol, 342.67 K): 0.0248
solubility (mole fraction) (in n-butanol, 293.11 K): 0.00872
solubility (mole fraction) (in n-butanol, 298.23 K): 0.00964
solubility (mole fraction) (in n-butanol, 302.99 K): 0.0109
solubility (mole fraction) (in n-butanol, 308.11 K): 0.0124
solubility (mole fraction) (in n-butanol, 313.13 K): 0.0141
solubility (mole fraction) (in n-butanol, 318.05 K): 0.0159
solubility (mole fraction) (in n-butanol, 322.89 K): 0.0178
solubility (mole fraction) (in n-butanol, 328.13 K): 0.02
solubility (mole fraction) (in n-butanol, 333.39 K): 0.0224
solubility (mole fraction) (in n-butanol, 338.07 K): 0.0255
solubility (mole fraction) (in n-butanol, 343.23 K): 0.0288
solubility (mole fraction) (in n-propanol, 292.99 K): 0.00859
solubility (mole fraction) (in n-propanol, 298.33 K): 0.00959
solubility (mole fraction) (in n-propanol, 303.23 K): 0.0108
solubility (mole fraction) (in n-propanol, 308.23 K): 0.0122
solubility (mole fraction) (in n-propanol, 313.15 K): 0.0139
solubility (mole fraction) (in n-propanol, 318.23 K): 0.0157
solubility (mole fraction) (in n-propanol, 323.23 K): 0.0176
solubility (mole fraction) (in n-propanol, 328.47 K): 0.0198
solubility (mole fraction) (in n-propanol, 333.07 K): 0.0223
solubility (mole fraction) (in n-propanol, 338.33 K): 0.0251
solubility (mole fraction) (in n-propanol, 343.35 K): 0.0286
solubility (mole fraction) (in water, 293.23 K): 0.00139
solubility (mole fraction) (in water, 298.15 K): 0.00158
solubility (mole fraction) (in water, 302.93 K): 0.00187
solubility (mole fraction) (in water, 312.93 K): 0.00263
solubility (mole fraction) (in water, 317.65 K): 0.00306
solubility (mole fraction) (in water, 322.85 K): 0.00366
solubility (mole fraction) (in water, 327.77 K): 0.00438
solubility (mole fraction) (in water, 332.83 K): 0.00522
solubility (mole fraction) (in water, 337.35 K): 0.00623
solubility (mole fraction) (in water, 342.47 K): 0.00748
